Source: the supplement of paper PMC10307832

Compound: Cc1nc(C(=O)NCC(=O)O)c(O)c2ccc(Oc3ccccc3)cc12 [FG-4592] + O=C(CCCCCCC(=O)Nc1ccccc1)NO [Vorinostat] (partner 1 µM)
Test: relative viability (nuclei count vs DMSO), 5 days (fraction); higher = more cells survive
Settings: first compound 8 µM
How it was run: (§1)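 Relative viability divides the nuclei count in treated wells by that in vehicle wells. Lung cancer cell lines were seeded in 1536-well plates, dosed by pin tool the next day, and fixed and stained after 5 days in one step with final 0.05% Triton X-100, 1% formaldehyde and 1 ug/ml Hoechst. Dosing was a single drug or a fixed anchor-drug dose plus five library-drug doses (not always all listed) in √10 steps, and values are medians of duplicate plates imaged at 4×.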

In order of falling relative viability:
1. ABC-1  1.03
2. NCI-H358  0.716

Compound: CC1=CC(=C(N1C2=CC=C(C=C2)Cl)C)C(=O)CN3CCCCC3 [IU1-47] + Nc1nc2[nH]cc(CCc3ccc(C(=O)N[C@@H](CCC(=O)O)C(=O)O)cc3)c2c(=O)[nH]1 [Pemetrexed] (partner 0.2 µM)
Test: as above
Settings: first compound 0.08 µM
How it was run: as §1

In order of rising relative viability:
1. NCI-H358  0.156
2. HCC-366  0.176
3. COR-L23  0.212
4. NCI-H838  0.241
5. ChaGo-K-1  0.26
6. NCI-H2170  0.28
7. LK-2  0.327
8. LOU-NH91  0.389
9. NCI-H1650  0.419
10. EMC-BAC-2  0.458
11. LCLC-103H  0.474
12. SW 900  0.478
13. NCI-H596  0.491
14. NCI-H1792  0.529
15. NCI-H520  0.548
16. H3255  0.624
17. NCI-H1993  0.631
18. NCI-H1944  0.652
19. NCI-H2087  0.668
20. NCI-H2126  0.69
21. NCI-H1793  0.691
22. HCC-44  0.706
23. NCI-H1648  0.776
24. NCI-H2342  0.794
25. NCI-H1395  0.888
26. NCI-H1563  0.892
27. NCI-H1666  0.894
28. NCI-H522  0.923
29. NCI-H2085  0.925
30. SW 1573  0.935
31. SK-MES-1  0.95
32. NCI-H2405  1.05
33. COR-L 105  1.12

Same assay, conditions: first compound 0.253 µM

In order of falling relative viability:
1. COR-L 105  1.17
2. NCI-H2405  1.1
3. SK-MES-1  1.05
4. NCI-H522  0.975
5. SW 1573  0.912
6. NCI-H1648  0.888
7. NCI-H1395  0.853
8. NCI-H1666  0.839
9. NCI-H1563  0.829
10. NCI-H2085  0.818
11. NCI-H1792  0.817
12. NCI-H2342  0.782
13. NCI-H1944  0.778
14. NCI-H2126  0.741
15. NCI-H520  0.711
16. HCC-44  0.685
17. NCI-H2087  0.637
18. NCI-H1993  0.588
19. H3255  0.544
20. LCLC-103H  0.464
21. EMC-BAC-2  0.436
22. LOU-NH91  0.386
23. NCI-H2170  0.362
24. NCI-H1650  0.338
25. LK-2  0.308
26. ChaGo-K-1  0.257
27. NCI-H838  0.233
28. COR-L23  0.18
29. NCI-H358  0.169
30. HCC-366  0.157

Same assay, conditions: first compound 0.8 µM

In order of falling relative viability:
1. NCI-H2405  1.05
2. NCI-H522  1.02
3. NCI-H1648  1.01
4. SK-MES-1  0.97
5. NCI-H2342  0.942
6. COR-L 105  0.93
7. NCI-H1666  0.888
8. NCI-H1563  0.871
9. NCI-H2085  0.846
10. NCI-H520  0.831
11. NCI-H1793  0.802
12. NCI-H1792  0.789
13. SW 1573  0.766
14. NCI-H1944  0.751
15. NCI-H1395  0.747
16. NCI-H2126  0.704
17. NCI-H2087  0.693
18. NCI-H1993  0.672
19. HCC-44  0.647
20. H3255  0.63
21. EMC-BAC-2  0.556
22. LOU-NH91  0.526
23. SW 900  0.495
24. NCI-H596  0.494
25. LCLC-103H  0.469
26. NCI-H1650  0.335
27. LK-2  0.3
28. ChaGo-K-1  0.282
29. NCI-H2170  0.278
30. NCI-H838  0.259
31. COR-L23  0.199
32. HCC-366  0.192
33. NCI-H358  0.172

Same assay, conditions: first compound 2.53 µM

In order of falling relative viability:
1. COR-L 105  1.12
2. NCI-H2405  1.02
3. SK-MES-1  0.993
4. NCI-H1792  0.877
5. NCI-H1666  0.873
6. NCI-H520  0.847
7. NCI-H2085  0.83
8. NCI-H2342  0.825
9. NCI-H1793  0.798
10. NCI-H522  0.735
11. NCI-H1944  0.734
12. NCI-H2087  0.716
13. NCI-H1563  0.703
14. HCC-44  0.668
15. SW 1573  0.657
16. NCI-H1648  0.644
17. H3255  0.605
18. NCI-H596  0.508
19. NCI-H1395  0.508
20. NCI-H2126  0.49
21. SW 900  0.472
22. EMC-BAC-2  0.459
23. LCLC-103H  0.449
24. LOU-NH91  0.38
25. NCI-H1650  0.36
26. NCI-H1993  0.346
27. LK-2  0.306
28. NCI-H838  0.274
29. NCI-H2170  0.264
30. ChaGo-K-1  0.249
31. HCC-366  0.211
32. COR-L23  0.195
33. NCI-H358  0.184

Same assay, conditions: first compound 8 µM

In order of rising relative viability:
1. LK-2  0.156
2. HCC-366  0.19
3. COR-L23  0.208
4. NCI-H838  0.246
5. NCI-H2170  0.258
6. ChaGo-K-1  0.268
7. NCI-H1650  0.294
8. LOU-NH91  0.35
9. SW 900  0.383
10. NCI-H596  0.446
11. EMC-BAC-2  0.468
12. NCI-H1993  0.482
13. NCI-H1648  0.494
14. H3255  0.511
15. LCLC-103H  0.519
16. NCI-H2087  0.556
17. NCI-H520  0.577
18. NCI-H2342  0.693
19. HCC-44  0.696
20. NCI-H2126  0.733
21. SW 1573  0.749
22. NCI-H1666  0.841
23. SK-MES-1  0.854
24. NCI-H2085  0.885
25. NCI-H522  0.958
26. COR-L 105  1.02
27. NCI-H2405  1.09
